Molecular target: T1, polycystin-2 (Homo sapiens, UniProt Q13563, C437S/C632S)
T1 construct: expressed in transfected cells
T1 sequence (Q13563 1-968 C437S/C632S): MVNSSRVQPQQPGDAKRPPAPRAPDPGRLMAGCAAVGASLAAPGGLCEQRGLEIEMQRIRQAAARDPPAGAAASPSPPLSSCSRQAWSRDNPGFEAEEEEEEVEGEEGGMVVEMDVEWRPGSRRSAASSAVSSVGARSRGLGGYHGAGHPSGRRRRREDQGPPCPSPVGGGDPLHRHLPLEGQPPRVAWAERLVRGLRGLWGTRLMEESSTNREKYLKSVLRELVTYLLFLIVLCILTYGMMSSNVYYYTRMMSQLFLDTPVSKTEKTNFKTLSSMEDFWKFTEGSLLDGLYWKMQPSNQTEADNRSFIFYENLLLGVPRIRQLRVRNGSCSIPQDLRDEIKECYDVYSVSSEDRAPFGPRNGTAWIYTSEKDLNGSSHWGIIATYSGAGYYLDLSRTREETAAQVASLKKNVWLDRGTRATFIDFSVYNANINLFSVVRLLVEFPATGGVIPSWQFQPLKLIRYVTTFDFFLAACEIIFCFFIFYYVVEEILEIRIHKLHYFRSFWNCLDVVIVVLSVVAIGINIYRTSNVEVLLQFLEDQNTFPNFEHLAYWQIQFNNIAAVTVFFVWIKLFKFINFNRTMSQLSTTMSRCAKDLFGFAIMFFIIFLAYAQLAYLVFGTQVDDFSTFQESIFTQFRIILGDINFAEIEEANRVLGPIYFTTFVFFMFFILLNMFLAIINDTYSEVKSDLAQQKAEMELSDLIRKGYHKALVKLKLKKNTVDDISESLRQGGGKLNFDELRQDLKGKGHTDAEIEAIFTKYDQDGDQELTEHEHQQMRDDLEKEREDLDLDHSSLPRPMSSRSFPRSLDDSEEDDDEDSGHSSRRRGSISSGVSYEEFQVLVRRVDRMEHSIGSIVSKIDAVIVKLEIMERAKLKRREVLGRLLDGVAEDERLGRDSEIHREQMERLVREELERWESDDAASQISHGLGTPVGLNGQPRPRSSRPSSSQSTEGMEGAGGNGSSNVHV
Format: cell-based
Settings: C437S:C632S double mutant
Source text: Generation of HEK PKD2^Null cells line and the stable expression PKD2 variants. To generate the HEK PKD2^Null cell lines, we used a CRISPR/Cas9 gene editing kit available from Addgene (kit 1000000055). HEK 293 cells were electro-transfected with sgRNAs (caccg[…] and aaac[…]c) with the All-in-one Cas9 plasmid. […] Cells generated from single cell clones were selected after 4 weeks of expansion in a 96-wells plate. […] To generate the WT and variant PKD2 GFP or mCherry C-terminally tagged variant cell lines, the hPKD gene was subcloned into lentiviral pLVX-mcherry-N1 (Clontech) or pLVX-GFP-N1 (Clontech) vector using the Gibson assembly method. A linker encoding for six glycine residues was added between the PKD2 gene and the C-terminal tags, and missense variants were generated using standard, site-directed mutagenesis. The third-generation lentiviral packaging plasmids used for stable expression contained: pMDLg/pRRE (Addgene), […] pRSV-Rev (Addgene), and envelope expressing plasmid pMD2.G (Addgene). LentiX-293T cells (Takara) were transfected with polyethylineimine (Polysciences) at a 4:1:1:1 ratio of the transgene and viral packaging constructs. Supernatants were collected 48 and 72 hours post transfection and filtered through a 0.45 μm syringe filter. Lentiviral supernatant was concentrated 100 times using 1 volume of PEG-it (System Biosciences) virus precipitation solution and 4 volume of lentivirus-containing supernatant. The PEG-it and supernatant mixture were kept at 4 degrees for 24 hours and centrifuged at 1500 rpm for 30 minutes. The pellet containing lentivirus was resuspended with 1/100th volume of PBS of the original supernatant volume. HEK cells were infected with the lentivirus supernatant; PKD2-GFP or PKD2-mCherry expression was selected using culture media containing puromycin (2 μg/ml) for 30 to 90 days. Cells were then fluorescence-activated cell sorted (BD FacsMelody) at 5000 to 10,000 counts per minute to enrich for the transgene expression. Stable cell lines were cultured in Dulbecco's modified essential medium (DMEM) supplemented with 10% fetal bovine serum (FBS) and 100 units/ml penicillin, 100 units/ml streptomycin and 1 μg/ml puromycin selection antibiotic.
Electrophysiology. Ciliary ion currents were recorded using borosilicate glass electrodes polished to resistances of 14-22 MΩ using the cilium patch method previously described^32. Whole cell electrodes used to measure poly cystin-2L1 currents were fire polished to 1.5-4 MΩ resistances. Unless otherwise stated, whole cilia ionic currents were recorded in symmetrical [Na^+]. The pipette standard internal solution contained (in mM): 90 NaMES, 10 NaCl, 10 HEPES, 10 Na4-BAPTA (Glycine, N, N′-[1,2-ethanediylbis(oxy-2,1-phenylene)]bis[N-(carboxymethyl)]-,tetrasodium); pH was adjusted to 7.3 using NaOH. Standard bath solution contained 140 NaCl, 10 HEPES, 1.8 CaCl2); pH 7.4. All solutions were osmotically balanced to 295 (±6) mOsm with mannitol. Extracellular solutions containing TCEP and GSH were used within six hours of formulation. Data were collected using an Axopatch 200B patch clamp amplifier, Digidata 1440A, and pClamp 10 software. Whole-cilium and excised patch currents were digitized at 25 kHz and low-pass filtered at 10 kHz. In the whole cilium configuration, the holding potential was −60 mV and then depolarized using a 400 ms voltage ramp from −100 mV to 100 mV. The whole cell recordings of polycystin-2L1 currents were either activated by the same ramp protocol or by 100 ms depolarizations to 100 mV from a −100 mV holding potential.

Structure (SMILES) | Effect on C437S:C632S double mutant channel cilia current
O=C(O)CCP(CCC(=O)O)CCC(=O)O [TCEP, tris-2-carboxyethyl phosphine] | retained its sensitivity
N[C@@H](CCC(=O)N[C@@H](CS)C(=O)NCC(=O)O)C(=O)O [GSH, reduced glutathione] | retained its sensitivity
